Test results taken from patent US12655116B2, “Substituted isophthalic acid diamides” (Bayer Aktiengesellschaft, priority 2020, dated 2026).

What was measured:
VERPE [1] = assay: Pre-emergence herbicidal action against VERPE; type: in vivo, Veronica persica; conditions: dosage 80 g/ha
Summary of the method: (§1)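 Herbicidal effect was assessed 3 weeks after treatment by visual comparison with untreated controls, 100% denoting dead plants. Aqueous WP or EC preparations had been applied at 600 to 800 l/ha with 0.2% wetting agent to the soil covering freshly sown seeds.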

ECHCG [2] = assay: Pre-emergence herbicidal action against ECHCG; type: in vivo, Echinochloa crus-galli; conditions: 80 g/ha
Summary of the method: as §1

ABUTH [3] = assay: Pre-emergence herbicidal action against ABUTH; type: in vivo, Abutilon theophrasti
Summary of the method: as §1

AMARE [4] = assay: Pre-emergence herbicidal action against AMARE; type: in vivo, Amaranthus retroflexus
Summary of the method: as §1

VIOTR [5] = assay: Pre-emergence herbicidal action against VIOTR; type: in vivo, Viola tricolor; conditions: dosage 80 g/ha
Summary of the method: as §1

PHBPU [6] = assay: Post-emergence herbicidal action against PHBPU; type: in vivo, Pharbitis purpurea; conditions: dosage 20 g/ha
Summary of the method: (§2)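 Herbicidal effect was scored visually in percent after about 3 weeks in the greenhouse. Plants had been raised in sandy loam and treated post-emergence at the one-leaf stage with formulated compound at 600 to 800 l/ha water plus 0.2% wetting agent.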

MATIN [7] = assay: Post-emergence herbicidal action against MATIN; type: in vivo, Matricaria inodora
Summary of the method: as §2

ALOMY [8] = assay: Post-emergence herbicidal action against ALOMY; type: in vivo, Alopecurus myosuroides; conditions: dosage 20 g/ha, visual assessment about 3 weeks after treatment vs untreated controls
Summary of the method: as §2

DIGSA = assay: Pre-emergence herbicidal action against DIGSA; type: in vivo, Digitaria sanguinalis
Summary of the method: as §1

ECHCG [9] = assay: Post-emergence herbicidal action against ECHCG; type: in vivo, Echinochloa crus-galli; conditions: dosage 20 g/ha
Summary of the method: as §2

POLCO = assay: Pre-emergence herbicidal action against POLCO; type: in vivo, Polygonum convolvulus
Summary of the method: as §1

PHBPU [10] = assay: Pre-emergence herbicidal action against PHBPU; type: in vivo, Pharbitis purpurea; conditions: dosage 80 g/ha
Summary of the method: as §1

ALOMY [11] = assay: Pre-emergence herbicidal action against ALOMY; type: in vivo, Alopecurus myosuroides; conditions: 80 g/ha, pre-emergence, scored visually after 3 weeks vs untreated controls (100% = plants have died, 0% = like control plants)
Summary of the method: as §1

AVEFA = assay: Pre-emergence herbicidal action against AVEFA; type: in vivo, Avena fatua; conditions: 80 g/ha, pre-emergence
Summary of the method: as §1

MATIN [12] = assay: Pre-emergence herbicidal action against MATIN; type: in vivo, Matricaria inodora
Summary of the method: as §1

VERPE [13] = assay: Post-emergence herbicidal action against VERPE; type: in vivo, Veronica persica
Summary of the method: as §2

VIOTR [14] = assay: Post-emergence herbicidal action against VIOTR; type: in vivo, Viola tricolor
Summary of the method: as §2

SETVI [15] = assay: Pre-emergence herbicidal action against SETVI; type: in vivo, Setaria viridis
Summary of the method: as §1

ABUTH [16] = assay: Post-emergence herbicidal action against ABUTH; type: in vivo, Abutilon theophrasti; conditions: Abutilon theophrasti, 504 h, visual assessment about 3 weeks after treatment vs untreated controls
Summary of the method: as §2

SETVI [17] = assay: Post-emergence herbicidal action against SETVI; type: in vivo, Setaria viridis; conditions: Setaria viridis, 504 h
Summary of the method: as §2

AMARE [18] = assay: Post-emergence herbicidal action against AMARE; type: in vivo, Amaranthus retroflexus; conditions: Amaranthus retroflexus, 504 h, 20 g/ha, visual assessment about 3 weeks after treatment, 100% = plants have died, 0% = like control plants
Summary of the method: as §2

[19] = 80 g/ha, scored visually after 3 weeks vs untreated controls (100% = plants have died, 0% = like control plants)
[20] = Tripleurospermum inodorum, 504 h, dosage 20 g/ha

**Q.** Which results are given for `CCn1nnnc1NC(=O)c1ccc(Br)c(C(=O)NC(C)C2CC2)c1Cl` (stereo not drawn) [Example 2-183]?
**A.** Pre-emergence action against VERPE in % (VERPE [1]): 90%; Pre-emergence action against ECHCG in % (ECHCG [2]): 90%; Pre-emergence action against ABUTH (herbicidal activity) (ABUTH [3]; [19]): 100%; Pre-emergence action against ABUTH (herbicidal activity in percent) (ABUTH [3]; dosage 20 g/ha, scored visually after 3 weeks vs untreated controls, 100% = plants have died, 0% = like control plants): 100%; Pre-emergence action against AMARE in % (AMARE [4]; 20 g/ha, scored visually after 3 weeks vs untreated controls, 100% = plants have died, 0% = like control plants): 90%; Pre-emergence action against AMARE in % (AMARE [4]; [19]): 100%; Pre-emergence action against VIOTR in % (VIOTR [5]): 100%; Post-emergence action against PHBPU in % (PHBPU [6]): 80%; Post-emergence action against MATIN in % (MATIN [7]; dosage 5 g/ha): 80%; Post-emergence action against MATIN in % (MATIN [7]; dosage 20 g/ha): 90%; Post-emergence action against ALOMY in % (ALOMY [8]): 80%; Pre-emergence action against DIGSA in % (DIGSA; dosage 20 g/ha): 90%; Pre-emergence action against DIGSA in % (DIGSA; dosage 80 g/ha): 100%; Post-emergence action against ECHCG in % (ECHCG [9]): 90%; Pre-emergence action against POLCO in % (POLCO; dosage 20 g/ha): 90%; Pre-emergence action against POLCO in % (POLCO; dosage 80 g/ha): 90%; Pre-emergence action against PHBPU in % (PHBPU [10]): 90%; Pre-emergence action against ALOMY (herbicidal activity) (ALOMY [11]): 90%; Pre-emergence action against AVEFA in % (AVEFA): 80%; Pre-emergence action against MATIN in % (MATIN [12]; dosage 20 g/ha): 90%; Pre-emergence action against MATIN in % (MATIN [12]; dosage 80 g/ha): 100%; Post-emergence action against VERPE in % (VERPE [13]; 20 g/ha): 90%; Post-emergence action against VIOTR in % (VIOTR [14]; 5 g/ha): 100%; Post-emergence action against VIOTR in % (VIOTR [14]; 20 g/ha): 100%; Pre-emergence action against SETVI in % (SETVI [15]; dosage 80 g/ha): 100%

**Q.** For `CSc1c(C(=O)Nc2nnnn2C)ccc(C(F)F)c1C(=O)NC1CC1` [Example 1-89], which pest or weed control at 80 g/ha (VERPE [1]; Veronica persica, 504 h) is on record?
**A.** 90%

**Q.** What about the pest or weed control at 80 g/ha (ECHCG [2]; Echinochloa crus-galli, 504 h) of the same molecule?
**A.** 100%

**Q.** What about the pest or weed control at 80 g/ha (ABUTH [3]; Abutilon theophrasti, 504 h, 80 g/ha, scored visually after 3 weeks vs untreated controls (100% = plants have died, 0% = like control plants)) of the same molecule?
**A.** 100%

**Q.** And the pest or weed control at 20 g/ha (ABUTH [3]; Abutilon theophrasti, 504 h, dosage 20 g/ha, scored visually after 3 weeks vs untreated controls, 100% = plants have died, 0% = like control plants, read-out: Pre-emergence action against ABUTH (herbicidal activity in percent))?
**A.** 90%

**Q.** What about the pest or weed control at 20 g/ha (AMARE [4]; Amaranthus retroflexus, 504 h, 20 g/ha, scored visually after 3 weeks vs untreated controls, 100% = plants have died, 0% = like control plants) of the same molecule?
**A.** 100%

**Q.** What about the pest or weed control at 80 g/ha (AMARE [4]; Amaranthus retroflexus, 504 h, 80 g/ha, scored visually after 3 weeks vs untreated controls, 100% = plants have died, 0% = like control plants) of the same molecule?
**A.** 100%

**Q.** What about the pest or weed control at 80 g/ha (VIOTR [5]; Viola tricolor, 504 h) of the same molecule?
**A.** 100%

**Q.** What about the pest or weed control at 5 g/ha (ABUTH [16]; dosage 5 g/ha) of the same molecule?
**A.** 90%

**Q.** And the pest or weed control at 20 g/ha (ABUTH [16]; dosage 20 g/ha)?
**A.** 90%

**Q.** And the pest or weed control at 20 g/ha (MATIN [7]; [20])?
**A.** 80%

**Q.** What about the pest or weed control at 20 g/ha (ALOMY [8]; Alopecurus myosuroides, 504 h) of the same molecule?
**A.** 90%

**Q.** What about the pest or weed control at 5 g/ha (SETVI [17]; dosage 5 g/ha) of the same molecule?
**A.** 90%

**Q.** And the pest or weed control at 20 g/ha (SETVI [17]; dosage 20 g/ha)?
**A.** 90%

**Q.** What about the pest or weed control at 80 g/ha (POLCO; Fallopia convolvulus, 504 h, dosage 80 g/ha) of the same molecule?
**A.** 80%

**Q.** What about the pest or weed control at 80 g/ha (PHBPU [10]; Ipomoea purpurea, 504 h) of the same molecule?
**A.** 80%

**Q.** And the pest or weed control at 20 g/ha (AMARE [18])?
**A.** 100%

**Q.** What about the pest or weed control at 80 g/ha (ALOMY [11]; Alopecurus myosuroides, 504 h) of the same molecule?
**A.** 90%

**Q.** And the pest or weed control at 80 g/ha (AVEFA; Avena fatua, 504 h)?
**A.** 90%

**Q.** What about the pest or weed control at 20 g/ha (MATIN [12]; [20]) of the same molecule?
**A.** 90%

**Q.** And the pest or weed control at 80 g/ha (MATIN [12]; Tripleurospermum inodorum, 504 h, dosage 80 g/ha)?
**A.** 100%

**Q.** And the pest or weed control at 5 g/ha (VERPE [13]; Veronica persica, 504 h, 5 g/ha)?
**A.** 90%

**Q.** And the pest or weed control at 20 g/ha (VERPE [13]; Veronica persica, 504 h, 20 g/ha)?
**A.** 90%

**Q.** And the pest or weed control at 5 g/ha (VIOTR [14]; Viola tricolor, 504 h, 5 g/ha)?
**A.** 90%

**Q.** What about the pest or weed control at 20 g/ha (VIOTR [14]; Viola tricolor, 504 h, 20 g/ha) of the same molecule?
**A.** 90%

**Q.** What about the pest or weed control at 20 g/ha (SETVI [15]; Setaria viridis, 504 h, dosage 20 g/ha) of the same molecule?
**A.** 90%

**Q.** And the pest or weed control at 80 g/ha (SETVI [15]; Setaria viridis, 504 h, dosage 80 g/ha)?
**A.** 100%
